Experimental data: PMC6358721, “Engineering of B800 bacteriochlorophyll binding site specificity in the Rhodobacter sphaeroides LH2 antenna” (Biochimica et Biophysica Acta. Bioenergetics, 2019)

Molecular target: T1, LH2 (light-harvesting 2 complex), B800 site; B850 LH2 when B800-depleted (Cereibacter sphaeroides, UniProt Q3J144+Q3J145)
T1 construct: gene pucA; native complex purified from Rba. sphaeroides membranes (LDAO, then beta-DDM); B800 BChl a removed with LDS for reconstitution; B850 BChl a and carotenoid retained; ring of nine alpha-beta pairs; R30L/R30F genomic at the puc1BA locus, R30E/R30M from pRK415 vectors, in delta-puc1BA delta-puc2BA delta-pufBALMX
T1 sequence (Q3J144 whole entry): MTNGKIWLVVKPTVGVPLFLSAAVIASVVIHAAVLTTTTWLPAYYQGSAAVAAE
T1 sequence (Q3J145 2-51): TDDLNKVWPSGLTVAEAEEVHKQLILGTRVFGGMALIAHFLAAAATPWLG
Assay: reconstitution of B800-depleted LH2, absorption spectra
Format: binding
Conditions: 20 mM Tris pH 8, 0.5% beta-DDM, 12 uM pigment, room temperature

C=Cc1c(C=O)c2[n]3c1C=C1N=C(C=c4c(C)c5c([n]4[Mg]3)=C(C3=NC(=C2)[C@@H](C)[C@@H]3CCC(=O)OC/C=C(\C)CCC[C@H](C)CCC[C@H](C)CCCC(C)C)[C@@H](C(=O)OC)C5=O)C(CC)=C1C [Chl f]
reconstitution of B800-depleted LH2, absorption spectra: we generated additional novel reconstitutions using Chl f
